{
  "source": "paper PMC12365235",
  "about": "“Molecular mechanisms of thiazide-like diuretics-mediated inhibition of the human Na-Cl cotransporter” (Nature Communications, 2025)",
  "molecular_target": "T1, hNCC(C472F) (Homo sapiens, UniProt P55017, C472F)",
  "T1 construct": "expressed in transfected cells",
  "T1 sequence (P55017 1-1021 C472F)": "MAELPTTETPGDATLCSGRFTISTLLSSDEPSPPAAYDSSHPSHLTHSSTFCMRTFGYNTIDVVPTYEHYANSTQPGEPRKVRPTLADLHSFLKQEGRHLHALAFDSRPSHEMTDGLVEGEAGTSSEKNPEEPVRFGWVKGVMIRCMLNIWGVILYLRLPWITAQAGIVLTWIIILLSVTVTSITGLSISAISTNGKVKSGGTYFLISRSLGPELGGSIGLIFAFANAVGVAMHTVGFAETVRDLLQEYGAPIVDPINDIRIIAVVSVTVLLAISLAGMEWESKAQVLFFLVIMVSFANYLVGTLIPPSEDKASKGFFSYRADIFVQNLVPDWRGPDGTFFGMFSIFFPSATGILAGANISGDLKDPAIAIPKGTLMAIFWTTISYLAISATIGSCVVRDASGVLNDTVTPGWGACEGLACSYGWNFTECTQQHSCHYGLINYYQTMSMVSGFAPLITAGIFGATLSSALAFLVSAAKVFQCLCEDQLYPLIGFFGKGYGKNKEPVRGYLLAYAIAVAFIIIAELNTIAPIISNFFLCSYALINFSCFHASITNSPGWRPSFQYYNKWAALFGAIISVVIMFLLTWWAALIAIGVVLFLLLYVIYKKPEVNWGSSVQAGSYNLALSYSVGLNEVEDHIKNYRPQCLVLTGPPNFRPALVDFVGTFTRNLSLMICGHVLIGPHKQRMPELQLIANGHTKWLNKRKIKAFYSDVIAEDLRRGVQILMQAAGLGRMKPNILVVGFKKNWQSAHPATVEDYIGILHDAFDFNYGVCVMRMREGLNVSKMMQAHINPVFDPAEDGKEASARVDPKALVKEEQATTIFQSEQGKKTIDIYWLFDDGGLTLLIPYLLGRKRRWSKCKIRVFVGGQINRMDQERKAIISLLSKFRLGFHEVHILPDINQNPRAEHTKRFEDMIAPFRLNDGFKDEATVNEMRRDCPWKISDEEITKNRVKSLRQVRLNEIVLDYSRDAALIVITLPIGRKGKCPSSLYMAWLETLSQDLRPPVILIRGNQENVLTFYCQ",
  "assay": "125I- uptake assay, hNCC(C472F) variant",
  "assay_type": "cell-based",
  "method": "HEK293S cell lines, cultured in 293 Freestyle medium (Life Technologies; plus 10% fetal bovine serum), stably expressing hNCC and its variants were generated following published protocols. Cells were transfected using Lipofectamine 3000 (Invitrogen) with a pSBbi-RP-based plasmid containing hNCC or its variants and the SB100X vector. Puromycin (2 μg/mL; Gemini Bio-Products) was used for selection of stable cell lines.\nTo prepare for the uptake experiment, cells were plated at 0.5 × 10^6 cells/well in 24-well plates one day in advance. To activate NCC, cells were treated with a chloride-free hypotonic solution composed of 67.5 mM sodium-, 2.5 mM potassium-, 0.25 mM magnesium-, and 0.25 mM calcium-gluconate, as well as 7.5 mM HEPES pH 7.4 (buffered using Tris) at 37 °C for 10 min[72]. After the activation step, the experiments were carried out at room temperature. Ten minutes before the start of ^125I^− uptake, 70 μM Bumetanide (Thermo Scientific Chemicals) and 100 μM 4,4′-diisothiocyanatostilbene-2,2′-disulfonic acid (DIDS; Sigma) were added to suppress background iodide uptake activity. Indicated thiazide diuretics were also added to the indicated concentrations 10 min before the start of ^125I^− uptake. The original buffer was switched to an uptake buffer composed of 135 mM Na-gluconate, 5 mM K-gluconate, 1 mM Mg-gluconate, 1 mM Ca-gluconate, 70 μM bumetanide, 100 μM DIDS, 1 mM NaI, 0.25 μCi/ml Na^125I (American Radiolabeled Chemicals, Inc.), and 15 mM HEPES pH 7.4 (buffered using Tris), in the presence or absence of thiazide diuretics to initiate ^125I^− uptake. The ^125I^− uptake process lasted 1 h and was stopped by two rapid washes using ice-cold 110 mM MgCl2. Cells lysed using 1% sodium dodecyl sulfate (SDS) were analyzed by scintillation counting.",
  "data": [
    {"smiles": "CN1C(CSCC(F)(F)F)Nc2cc(Cl)c(S(N)(=O)=O)cc2S1(=O)=O", "note": "(stereo not drawn) [polythiazide]", "values": [
      {"measurement": "inhibition at 100 µM", "setting": "100 μM polythiazide, C472F, read-out: inhibition of transport activity", "result": "~50", "unit": "%"},
      {"measurement": "decrease in potency relative to hNCC(WT)", "setting": "C472F substitution", "result": "approximately 200,000 fold"},
      {"measurement": "IC50", "setting": "C472F substitution, estimated from ~50% inhibition at 100 μM", "result": "~100", "unit": "µM"}
    ]}
  ]
}
